# According to US6358885B1, “Substituted phenylheterocyclic herbicides” (Mississippi State University, priority 1992, dated 2002):
# How the values were obtained:
# Assay in all cases: Test B preemergence/postemergence greenhouse plant response rating 0 to 10
# barley = assay type: in vivo, Hordeum vulgare; settings: 0 to 10 scale
# Procedure, shortened: (§1)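 Postemergence treatment of plants two to eighteen cm tall ran alongside preemergence treatment of planted seed, each using compound in a non-phytotoxic solvent.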
# barnyardgrass = assay type: in vivo, Echinochloa crus-galli; settings: 0 to 10 scale
# Procedure, shortened: as §1
# bedstraw = assay type: in vivo, Galium aparine; settings: 0 to 10 scale
# Procedure, shortened: as §1
# blackgrass = assay type: in vivo, Alopecurus myosuroides; settings: 0 to 10 scale
# Procedure, shortened: as §1
# cheatgrass = assay type: in vivo, Bromus secalinus; settings: 0 to 10 scale
# Procedure, shortened: as §1
# chickweed = assay type: in vivo, Stellaria media; settings: 0 to 10 scale
# Procedure, shortened: as §1
# cocklebur = assay type: in vivo, Xanthium pensylvanicum; settings: 0 to 10 scale
# Procedure, shortened: as §1
# corn = assay type: in vivo, Zea mays; settings: 0 to 10 scale
# Procedure, shortened: as §1
# cotton = assay type: in vivo, Gossypium hirsutum; settings: 0 to 10 scale
# Procedure, shortened: as §1
# crabgrass = assay type: in vivo, Digitaria spp.; settings: 0 to 10 scale
# Procedure, shortened: as §1
# giant foxtail = assay type: in vivo, Setaria faberii; settings: 0 to 10 scale
# Procedure, shortened: as §1
# lambsquarters = assay type: in vivo, Chenopodium album; settings: 0 to 10 scale
# Procedure, shortened: as §1
# morningglory = assay type: in vivo, Ipomoea hederacea; settings: 0 to 10 scale
# Procedure, shortened: as §1
# rape = assay type: in vivo, Brassica napus; settings: 0 to 10 scale
# Procedure, shortened: as §1
# rice = assay type: in vivo, Oryza sativa; settings: 0 to 10 scale
# Procedure, shortened: as §1
# sorghum = assay type: in vivo, Sorghum bicolor; settings: 0 to 10 scale
# Procedure, shortened: as §1
# soybean = assay type: in vivo, Glycine max; settings: 0 to 10 scale
# Procedure, shortened: as §1
# sugar beet = assay type: in vivo, Beta vulgaris; settings: 0 to 10 scale
# Procedure, shortened: as §1
# velvetleaf = assay type: in vivo, Abutilon theophrasti; settings: 0 to 10 scale
# Procedure, shortened: as §1
# wheat = assay type: in vivo, Triticum aestivum; settings: 0 to 10 scale
# Procedure, shortened: as §1
# wild buckwheat = assay type: in vivo, Polygonum convolvulus; settings: POSTEMERGENCE, 0 to 10 scale
# Procedure, shortened: as §1
# wild oat = assay type: in vivo, Avena fatua; settings: 0 to 10 scale
# Procedure, shortened: as §1
# purple nutsedge = assay type: in vivo, Cyperus rotundus; settings: 0 to 10 scale
# Procedure, shortened: as §1
smiles,measurement,setting,value
CCCCN1C(=O)COc2cc(F)c(-c3nn4c(c3Cl)CCCC4)cc21 [Compound 57],"Plant response rating, Barley","barley; POSTEMERGENCE, Rate 10 g/ha",4
same,"Plant response rating, Barley","barley; POSTEMERGENCE, Rate 50 g/ha",4
same,"Plant response rating, Barley","barley; PREEMERGENCE, Rate 10 g/ha",0
same,"Plant response rating, Barley","barley; PREEMERGENCE, Rate 50 g/ha",0
same,"Plant response rating, Barnyardgrass","barnyardgrass; POSTEMERGENCE, Rate 10 g/ha",3
same,"Plant response rating, Barnyardgrass","barnyardgrass; POSTEMERGENCE, Rate 50 g/ha",3
same,"Plant response rating, Barnyardgrass","barnyardgrass; PREEMERGENCE, Rate 10 g/ha",0
same,"Plant response rating, Barnyardgrass","barnyardgrass; PREEMERGENCE, Rate 50 g/ha",3
same,"Plant response rating, Bedstraw","bedstraw; POSTEMERGENCE, Rate 10 g/ha",9
same,"Plant response rating, Bedstraw","bedstraw; POSTEMERGENCE, Rate 50 g/ha",9
same,"Plant response rating, Bedstraw","bedstraw; PREEMERGENCE, Rate 10 g/ha",6
same,"Plant response rating, Bedstraw","bedstraw; PREEMERGENCE, Rate 50 g/ha",8
same,"Plant response rating, Blackgrass","blackgrass; POSTEMERGENCE, Rate 10 g/ha",4
same,"Plant response rating, Blackgrass","blackgrass; POSTEMERGENCE, Rate 50 g/ha",7
same,"Plant response rating, Blackgrass","blackgrass; PREEMERGENCE, Rate 10 g/ha",3
same,"Plant response rating, Blackgrass","blackgrass; PREEMERGENCE, Rate 50 g/ha",6
same,"Plant response rating, Cheatgrass","cheatgrass; POSTEMERGENCE, Rate 10 g/ha",4
same,"Plant response rating, Cheatgrass","cheatgrass; POSTEMERGENCE, Rate 50 g/ha",6
same,"Plant response rating, Cheatgrass","cheatgrass; PREEMERGENCE, Rate 10 g/ha",3
same,"Plant response rating, Cheatgrass","cheatgrass; PREEMERGENCE, Rate 50 g/ha",5
same,"Plant response rating, Chickweed","chickweed; POSTEMERGENCE, Rate 10 g/ha",8
same,"Plant response rating, Chickweed","chickweed; POSTEMERGENCE, Rate 50 g/ha",10
same,"Plant response rating, Chickweed","chickweed; PREEMERGENCE, Rate 10 g/ha",6
same,"Plant response rating, Chickweed","chickweed; PREEMERGENCE, Rate 50 g/ha",9
same,"Plant response rating, Cocklebur","cocklebur; POSTEMERGENCE, Rate 10 g/ha",9
same,"Plant response rating, Cocklebur","cocklebur; POSTEMERGENCE, Rate 50 g/ha",9
same,"Plant response rating, Cocklebur","cocklebur; PREEMERGENCE, Rate 10 g/ha",0
same,"Plant response rating, Cocklebur","cocklebur; PREEMERGENCE, Rate 50 g/ha",3
same,"Plant response rating, Corn","corn; POSTEMERGENCE, Rate 10 g/ha",3
same,"Plant response rating, Corn","corn; POSTEMERGENCE, Rate 50 g/ha",4
same,"Plant response rating, Corn","corn; PREEMERGENCE, Rate 50 g/ha",0
same,"Plant response rating, Cotton","cotton; POSTEMERGENCE, Rate 10 g/ha",10
same,"Plant response rating, Cotton","cotton; POSTEMERGENCE, Rate 50 g/ha",10
same,"Plant response rating, Cotton","cotton; PREEMERGENCE, Rate 10 g/ha",0
same,"Plant response rating, Cotton","cotton; PREEMERGENCE, Rate 50 g/ha",2
same,"Plant response rating, Crabgrass","crabgrass; POSTEMERGENCE, Rate 10 g/ha",2
same,"Plant response rating, Crabgrass","crabgrass; POSTEMERGENCE, Rate 50 g/ha",3
same,"Plant response rating, Crabgrass","crabgrass; PREEMERGENCE, Rate 10 g/ha",0
same,"Plant response rating, Crabgrass","crabgrass; PREEMERGENCE, Rate 50 g/ha",0
same,"Plant response rating, Giant foxtail","giant foxtail; POSTEMERGENCE, Rate 10 g/ha",5
same,"Plant response rating, Giant foxtail","giant foxtail; POSTEMERGENCE, Rate 50 g/ha",6
same,"Plant response rating, Giant foxtail","giant foxtail; PREEMERGENCE, Rate 10 g/ha",0
same,"Plant response rating, Giant foxtail","giant foxtail; PREEMERGENCE, Rate 50 g/ha",2
same,"Plant response rating, Lambsquarter","lambsquarters; POSTEMERGENCE, Rate 10 g/ha",9
same,"Plant response rating, Lambsquarter","lambsquarters; POSTEMERGENCE, Rate 50 g/ha",10
same,"Plant response rating, Lambsquarter","lambsquarters; PREEMERGENCE, Rate 50 g/ha",10
same,"Plant response rating, Morningglory","morningglory; POSTEMERGENCE, Rate 10 g/ha",10
same,"Plant response rating, Morningglory","morningglory; POSTEMERGENCE, Rate 50 g/ha",10
same,"Plant response rating, Morningglory","morningglory; PREEMERGENCE, Rate 50 g/ha",10
same,"Plant response rating, Rape","rape; POSTEMERGENCE, Rate 10 g/ha",10
same,"Plant response rating, Rape","rape; POSTEMERGENCE, Rate 50 g/ha",10
same,"Plant response rating, Rape","rape; PREEMERGENCE, Rate 50 g/ha",0
same,"Plant response rating, Rice","rice; POSTEMERGENCE, Rate 10 g/ha",3
same,"Plant response rating, Rice","rice; POSTEMERGENCE, Rate 50 g/ha",3
same,"Plant response rating, Rice","rice; PREEMERGENCE, Rate 50 g/ha",0
same,"Plant response rating, Sorghum","sorghum; POSTEMERGENCE, Rate 10 g/ha",2
same,"Plant response rating, Sorghum","sorghum; POSTEMERGENCE, Rate 50 g/ha",4
same,"Plant response rating, Sorghum","sorghum; PREEMERGENCE, Rate 50 g/ha",0
same,"Plant response rating, Soybean","soybean; POSTEMERGENCE, Rate 10 g/ha",6
same,"Plant response rating, Soybean","soybean; POSTEMERGENCE, Rate 50 g/ha",8
same,"Plant response rating, Soybean","soybean; PREEMERGENCE, Rate 50 g/ha",0
same,"Plant response rating, Sugar beet","sugar beet; POSTEMERGENCE, Rate 10 g/ha",10
same,"Plant response rating, Sugar beet","sugar beet; POSTEMERGENCE, Rate 50 g/ha",10
same,"Plant response rating, Sugar beet","sugar beet; PREEMERGENCE, Rate 50 g/ha",9
same,"Plant response rating, Velvetleaf","velvetleaf; POSTEMERGENCE, Rate 10 g/ha",6
same,"Plant response rating, Velvetleaf","velvetleaf; POSTEMERGENCE, Rate 50 g/ha",9
same,"Plant response rating, Velvetleaf","velvetleaf; PREEMERGENCE, Rate 50 g/ha",10
same,"Plant response rating, Wheat","wheat; POSTEMERGENCE, Rate 10 g/ha",7
same,"Plant response rating, Wheat","wheat; POSTEMERGENCE, Rate 50 g/ha",7
same,"Plant response rating, Wheat","wheat; PREEMERGENCE, Rate 50 g/ha",2
same,"Plant response rating, Wild buckwheat",wild buckwheat; Rate 10 g/ha,10
same,"Plant response rating, Wild buckwheat",wild buckwheat; Rate 50 g/ha,10
same,"Plant response rating, Wild oat","wild oat; POSTEMERGENCE, Rate 10 g/ha",4
same,"Plant response rating, Wild oat","wild oat; POSTEMERGENCE, Rate 50 g/ha",7
same,"Plant response rating, Wild oat","wild oat; PREEMERGENCE, Rate 50 g/ha",5
same,"Plant response rating, Nutsedge","purple nutsedge; POSTEMERGENCE, Rate 10 g/ha",2
same,"Plant response rating, Nutsedge","purple nutsedge; POSTEMERGENCE, Rate 50 g/ha",4
same,"Plant response rating, Nutsedge","purple nutsedge; PREEMERGENCE, Rate 50 g/ha",0
